Measured values published in the Kinase Knowledgebase extract (Sharma et al. 2016).

Target: CDK2 (UniProt P24941)
Assay: Enzyme Assay

SMILES	IC50 [nM]
CC(=NO)Nc1n[nH]c2ccc(N3CCCS3(=O)=O)cc12	< 100000
O=C(Nc1n[nH]c2ccc(N3CCCS3(=O)=O)cc12)C1(c2ccccc2)CCCC1	< 100000
O=C(Cc1ccc(N2CCOCC2)cc1)Nc1n[nH]c2ccc(N3CCCS3(=O)=O)cc12	< 100
Cc1cccc(CC(=O)Nc2n[nH]c3ccc(N4CCCS4(=O)=O)cc23)c1	< 50
COc1cc(CC(=O)Nc2n[nH]c3ccc(N4CCCS4(=O)=O)cc23)cc(OC)c1	< 50
O=C(Cn1cnc(-c2ccc3ccccc3c2)c1)Nc1n[nH]c2ccc(N3CCCS3(=O)=O)cc12	< 50
O=C(Cc1ccc(O)cc1)Nc1n[nH]c2ccc(N3CCCS3(=O)=O)cc12	< 50
CCOc1ccc(CC(=O)Nc2n[nH]c3ccc(N4CCCS4(=O)=O)cc23)cc1	< 50
CC(=S)Nc1n[nH]c2ccc(N3CCCS3(=O)=O)cc12	< 50000
O=C(Cc1ccc(-c2ccco2)cc1)Nc1n[nH]c2ccc(N3CCCS3(=O)=O)cc12	< 50
CNc1ccc(CC(=O)Nc2n[nH]c3ccc(N4CCCS4(=O)=O)cc23)cc1	< 50
Nc1cccc(CC(=O)Nc2n[nH]c3ccc(N4CCCS4(=O)=O)cc23)c1	< 50
CCOc1ccc(CC(=O)Nc2n[nH]c3ccc(N4CCCS4(=O)=O)cc23)cc1S(=O)(=O)N1CCOCC1	< 1000
CN1CCN(Cc2ccc(CC(=O)Nc3n[nH]c4ccc(N5CCCS5(=O)=O)cc34)cc2)CC1	< 100
O=C(Cn1cnc(-c2ccccc2)c1)Nc1n[nH]c2ccc(N3CCCS3(=O)=O)cc12	< 50
O=C(CN1CCCCC1)Nc1n[nH]c2ccc(N3CCCS3(=O)=O)cc12	< 10000
O=C(Cc1cccc2ccccc12)Nc1n[nH]c2ccc(N3CCCS3(=O)=O)cc12	< 50
O=C(Cc1ccc(-c2ccsc2)cc1)Nc1n[nH]c2ccc(N3CCCS3(=O)=O)cc12	< 50
O=C(Cn1cnc(-c2ccc(-c3ccccc3)cc2)c1)Nc1n[nH]c2ccc(N3CCCS3(=O)=O)cc12	< 500
O=S1(=O)CCCN1c1ccc2[nH]nc(NC(=S)Cc3ccccc3)c2c1	< 10000
CC(C)c1ccc(CC(=O)Nc2n[nH]c3ccc(N4CCCS4(=O)=O)cc23)cc1	< 50

SMILES	IC50 [nM]
Cc1ccccc1CC(=O)Nc1n[nH]c2ccc(N3CCCS3(=O)=O)cc12	< 100
CCN(CC)c1ccc(CC(=O)Nc2n[nH]c3ccc(N4CCCS4(=O)=O)cc23)cc1	< 50
O=C(Cc1ccc(-c2ccccc2)cc1)Nc1n[nH]c2ccc(N3CCCS3(=O)=O)cc12	< 50
O=C(Cn1cnc2ccccc21)Nc1n[nH]c2ccc(N3CCCS3(=O)=O)cc12	< 50
CC(=O)Nc1n[nH]c2ccc(N3CCCS3(=O)=O)cc12	> 100000
CCNc1ccc(CC(=O)Nc2n[nH]c3ccc(N4CCCS4(=O)=O)cc23)cc1	< 50
O=C(Cc1ccc(S(=O)(=O)N2CCOCC2)cc1)Nc1n[nH]c2ccc(N3CCCS3(=O)=O)cc12	< 100
O=C(Cc1ccc(F)cc1)Nc1n[nH]c2ccc(N3CCCS3(=O)=O)cc12	< 50
O=C(Cc1ccc(Cl)cc1)Nc1n[nH]c2ccc(N3CCCS3(=O)=O)cc12	< 50
CCOc1cccc(CC(=O)Nc2n[nH]c3ccc(N4CCCS4(=O)=O)cc23)c1	< 50
CC(=O)Nc1nc(CC(=O)Nc2n[nH]c3ccc(N4CCCS4(=O)=O)cc23)cs1	< 10000
O=C(Cc1ccc(Oc2ccccc2)cc1)Nc1n[nH]c2ccc(N3CCCS3(=O)=O)cc12	< 100
O=C(Cc1ccc([N+](=O)[O-])cc1)Nc1n[nH]c2ccc(N3CCCS3(=O)=O)cc12	< 50
O=C(Cc1ccc2c(c1)OCO2)Nc1n[nH]c2ccc(N3CCCS3(=O)=O)cc12	< 50
O=C(Cc1ccc(Cl)c(Cl)c1)Nc1n[nH]c2ccc(N3CCCS3(=O)=O)cc12	< 50
CCN(CC)c1nc(CC(=O)Nc2n[nH]c3ccc(N4CCCS4(=O)=O)cc23)cs1	< 500
CCN(CC)c1cccc(CC(=O)Nc2n[nH]c3ccc(N4CCCS4(=O)=O)cc23)c1	< 500
O=C(Cc1ccc(N(Cc2ccccc2)Cc2ccccc2)cc1)Nc1n[nH]c2ccc(N3CCCS3(=O)=O)cc12	< 500
O=C(Cc1ccccc1)Nc1n[nH]c2ccc(N3CCCS3(=O)=O)cc12	< 50
CCNc1cccc(CC(=O)Nc2n[nH]c3ccc(N4CCCS4(=O)=O)cc23)c1	< 500
CCOc1ccc(CC(=O)Nc2n[nH]c3ccc(N4CCCS4(=O)=O)cc23)cc1Cl	< 100

More lines, now with the values ahead:

IC50 [nM]	SMILES
< 1000	O=C(CN1CCc2ccccc2C1)Nc1n[nH]c2ccc(N3CCCS3(=O)=O)cc12
< 10000	O=C(CN1CCOCC1)Nc1n[nH]c2ccc(N3CCCS3(=O)=O)cc12
< 100	CC(C)(C)OC(=O)Nc1nc(CC(=O)Nc2n[nH]c3ccc(N4CCCS4(=O)=O)cc23)cs1
< 10000	O=S1(=O)CCCN1c1ccc2[nH]nc(NC(Cc3ccccc3)=NO)c2c1
< 50	O=C(Cc1ccc(-c2ccncc2)cc1)Nc1n[nH]c2ccc(N3CCCS3(=O)=O)cc12
< 1000	CCOc1ccc(CC(=O)Nc2n[nH]c3ccc(N4CCCS4(=O)=O)cc23)cc1S(=O)(=O)N1CCN(C)CC1
< 50	CS(=O)(=O)c1ccc(CC(=O)Nc2n[nH]c3ccc(N4CCCS4(=O)=O)cc23)cc1
< 100	CCOCCOCCOc1ccc(CC(=O)Nc2n[nH]c3ccc(N4CCCS4(=O)=O)cc23)cc1
< 100	COc1ccc(CC(=O)Nc2n[nH]c3ccc(N4CCCS4(=O)=O)cc23)cc1
< 50	O=C(Cc1cccc(Cl)c1)Nc1n[nH]c2ccc(N3CCCS3(=O)=O)cc12
< 50	CSc1ccc(CC(=O)Nc2n[nH]c3ccc(N4CCCS4(=O)=O)cc23)cc1
< 50	O=C(Cc1ccc(Br)cc1)Nc1n[nH]c2ccc(N3CCCS3(=O)=O)cc12
< 50	Cc1ccc(CC(=O)Nc2n[nH]c3ccc(N4CCCS4(=O)=O)cc23)cc1
< 50	O=C(Cc1cccc(Br)c1)Nc1n[nH]c2ccc(N3CCCS3(=O)=O)cc12
< 10000	CC(=O)c1ccc(N2CCN(CC(=O)Nc3n[nH]c4ccc(N5CCCS5(=O)=O)cc34)CC2)cc1
< 1000	O=C(CCc1ccccc1)Nc1n[nH]c2ccc(N3CCCS3(=O)=O)cc12
< 100	O=C(Cc1ccc(OCc2ccccc2)cc1)Nc1n[nH]c2ccc(N3CCCS3(=O)=O)cc12
< 100	O=C(Cn1cnc(-c2ccc(Br)cc2)c1)Nc1n[nH]c2ccc(N3CCCS3(=O)=O)cc12
< 100000	CCC(C(=O)Nc1n[nH]c2ccc(N3CCCS3(=O)=O)cc12)c1ccccc1 (stereo not given)

IC50 [nM]	SMILES
< 1000	O=C(Cc1ccc(Cn2ccnc2)cc1)Nc1n[nH]c2ccc(N3CCCS3(=O)=O)cc12
< 500	CCNc1nc(CC(=O)Nc2n[nH]c3ccc(N4CCCS4(=O)=O)cc23)cs1
< 100	O=C(Cc1ccc(CN2CCOCC2)cc1)Nc1n[nH]c2ccc(N3CCCS3(=O)=O)cc12
< 10000	CCOc1ccccc1N1CCN(CC(=O)Nc2n[nH]c3ccc(N4CCCS4(=O)=O)cc23)CC1
< 50	O=C(Cc1ccc2ccccc2c1)Nc1n[nH]c2ccc(N3CCCS3(=O)=O)cc12
< 50	Nc1ccc(CC(=O)Nc2n[nH]c3ccc(N4CCCS4(=O)=O)cc23)cc1
< 1000	CN1CCN(S(=O)(=O)c2ccc(CC(=O)Nc3n[nH]c4ccc(N5CCCS5(=O)=O)cc34)cc2)CC1
< 100000	O=C(Nc1n[nH]c2ccc(N3CCCS3(=O)=O)cc12)C(c1ccccc1)C1CCCC1 (stereo not given)
< 100	NCCOc1ccc(CC(=O)Nc2n[nH]c3ccc(N4CCCS4(=O)=O)cc23)cc1
< 10000	O=C(Cc1csc(NCc2ccc(OCc3ccccc3)cc2)n1)Nc1n[nH]c2ccc(N3CCCS3(=O)=O)cc12
< 10000	COc1ccc(N2CCN(CC(=O)Nc3n[nH]c4ccc(N5CCCS5(=O)=O)cc34)CC2)cc1
< 10000	CN1CCN(CC(=O)Nc2n[nH]c3ccc(N4CCCS4(=O)=O)cc23)CC1
< 50	CCOc1ccc(CC(=O)Nc2n[nH]c3ccc(N4CCCS4(=O)=O)cc23)cc1[N+](=O)[O-]
< 50	O=C(Cc1cccc([N+](=O)[O-])c1)Nc1n[nH]c2ccc(N3CCCS3(=O)=O)cc12
< 500	O=C(CN1CCN(c2ccccc2)CC1)Nc1n[nH]c2ccc(N3CCCS3(=O)=O)cc12
< 10000	O=C(CN1CCN(c2ccc(Cl)cc2)CC1)Nc1n[nH]c2ccc(N3CCCS3(=O)=O)cc12
< 500	Nc1nc(CC(=O)Nc2n[nH]c3ccc(N4CCCS4(=O)=O)cc23)cs1
< 100	COCCOCCOCCOc1ccc(CC(=O)Nc2n[nH]c3ccc(N4CCCS4(=O)=O)cc23)cc1
< 1000	CCOc1ccc(CC(=O)Nc2n[nH]c3ccc(N4CCCS4(=O)=O)cc23)cc1S(N)(=O)=O
